Patent publication US20260345458A1, “Pharmaceutical, Dermatological or Cosmetic Compounds and Compositions for Reducing Melanin Synthesis, Stimulating Type I Collagen Production, Skin Depigmentation and/or Promoting a Skin Anti-Aging Effect in an Individual or Animal, Uses and Methods” (Chemyunion Ltda, priority 2022, published 2026)
Where a SMILES comes first, the peptide text is derived from it. The star is where a group is joined. Palmitoyl = CCCCCCCCCCCCCCCC(=O)*

Key:
rats = details: cited from earlier work
skin = details: cited from earlier work; for ochronosis: skin becomes more pigmented than at the beginning of treatment
melanin synthesis = details: as reported in prior patent documents; cited from earlier work
[1] = test system: melanin synthesis in human skin fragments; assay: Inhibition of melanin synthesis in human skin fragments (ex vivo explants, Fontana Masson staining); type: cell-based; details: 50 ppm; 72 h; ex vivo human skin explants (n=5); vs placebo; **p<0.01 (FIG. 1)
Text: (§1) FIG. 1: Semi-quantification of melanin pigment levels. Data obtained by recording images of histological sections of human skin fragments previously treated with a formulation without active ingredient (Placebo) and treated with the same formulation containing the peptide SEQ ID No. 1 (Pal-Gln-His-Trp-Val-OH) (at 50 ppm or 100 ppm). **p<0.01 compared to the placebo group.
FIG. 2: Representative images of the effect of peptide SEQ ID No. 1 (Pal-Gln-His-Trp-Val-OH) on melanin synthesis in ex vivo skin fragments-Fontana Masson staining (400× magnification).
Example 1: Evaluation of Inhibition of Melanin Synthesis in Human Skin Fragments
Skin explants (n=5), obtained from a surgical procedure performed by an ophthalmological plastic surgery clinic, were treated for 72 h with a formulation containing the peptide SEQ ID No. 1 (Pal-Gln-His-Trp-Val-OH), (at 50 ppm or 100 ppm) and with the same formulation without the addition of the peptide (placebo).
After incubation with the test products as described above, the skin fragments were fixed in 4% paraformaldehyde (pH 7.4) for 24 hours. […]
Subsequently, the slides were analyzed and recorded using an optical microscope coupled to a camera.

[2] = test system: type I collagen in human skin fragments; assay: Collagen synthesis stimulation in human skin fragments (ex vivo explants, immunofluorescence); type: cell-based; details: 72 h, ex vivo human skin explants (n=5), vs placebo, **p<0.01 (FIG. 3)
Text: as §1, with “3.” for “1:”, “type I collagen” for “melanin pigment”
FIG. 4. Representative images of the effect of peptide SEQ ID No. 1 (Pal-Gln-His-Trp-Val-OH) on the synthesis of type I collagen in ex vivo skin fragments-immunofluorescence (400× magnification).
Example 2: Evaluation of Collagen Synthesis Stimulation in Human Skin Fragments
Skin explants (n=5) obtained from a surgical procedure performed by the ophthalmologic plastic surgery clinic were treated for 72 h with a formulation containing the peptide SEQ ID No. 1 (Pal-Gln-His-Trp-Val-OH) (at 50 ppm or 100 ppm) and with the same formulation without the addition of the peptide (placebo). After incubation with the test products as described above, the skin fragments were fixed in 4% paraformaldehyde (pH 7.4) for 24 h. […] The skin sections were then subjected to the specific labeling process for type I collagen for subsequent immunofluorescence analysis; the records were obtained using a fluorescence optical microscope coupled to a photographic camera.

## O=c1cc(CO)occ1O [Kojic acid]
rats
  promotion of cancer: has been found to promote the development of liver and thyroid cancer in rats

## Oc1ccc(O)cc1 [hydroquinone]
skin
  ochronosis: can cause ochronosis
skin; topical application, studies suggest
  effect on extracellular matrix fibers, adrenal glands, thyroid physiology and skin firmness: can disrupt the fibers of the extracellular matrix (especially collagen and elastin), leading to changes in the adrenal glands and thyroid physiology, as well as loss of skin firmness

## OC[C@H]1O[C@@H](Oc2ccc(O)cc2)[C@H](O)[C@@H](O)[C@@H]1O [arbutin]
skin
  ochronosis: can cause ochronosis

## Caffeoyl-GlnHisGlyVal-OH
Melanin synthesis
  activity on melanin synthesis / skin lightening: has skin lightening activity due to its anti-inflammatory activity

## CCCCCCCCCCCCCCCC(=O)N[C@@H](CCC(N)=O)C(=O)N[C@@H](Cc1c[nH]cn1)C(=O)N[C@@H](Cc1c[nH]c2ccccc12)C(=O)N[C@H](C(=O)O)C(C)C [SEQ ID No. 1, Pal-Gln-His-Trp-Val-OH] (Palmitoyl-QHWV-OH)
[1]
  reduction of melanin production compared to the placebo group: 66%
[2]; 50 ppm
  stimulation of collagen I production compared to the placebo group: 63%
[2]; 100 ppm
  increase in protein (type I collagen) synthesis compared to the placebo group: 71%

## CCCCCCCCCCCCCCCC(=O)N[C@@H](Cc1ccc(O)cc1)C(=O)N[C@@H](Cc1ccc(O)cc1)C(=O)N[C@@H](CCSC)C(N)=O [Pal-TyrTyrMet-NH2] (Palmitoyl-Tyr-Tyr-Met-NH2)
Melanin synthesis
  activity on melanin synthesis / skin lightening: stimulating melanin synthesis
